Legend:
[1] = target: T1, human B1R receptor (hB1R) (Homo sapiens, UniProt P46663); assay: FLIPR Ca2+ assay on human bradykinin 1 receptor (CHO K1 hB1R cells); assay type: cell-based; details: test substance 10 μM; CHO K1 cells with human B1R gene; agonist Lys-Des-Arg9-bradykinin 0.5 nM; compared to maximum achievable inhibition
T1 construct: host or cells: CHO K1 cells
T1 sequence (P46663 1-353): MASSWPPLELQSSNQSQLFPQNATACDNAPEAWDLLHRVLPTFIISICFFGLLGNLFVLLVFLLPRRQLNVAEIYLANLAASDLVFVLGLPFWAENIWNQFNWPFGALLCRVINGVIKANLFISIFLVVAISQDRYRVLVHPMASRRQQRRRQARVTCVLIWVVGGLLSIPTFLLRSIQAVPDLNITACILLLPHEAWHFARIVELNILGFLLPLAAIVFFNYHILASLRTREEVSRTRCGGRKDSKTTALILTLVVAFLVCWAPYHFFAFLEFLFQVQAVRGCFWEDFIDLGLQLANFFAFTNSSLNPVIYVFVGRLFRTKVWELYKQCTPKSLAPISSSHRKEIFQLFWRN
Description: (§1) The agonistic or antagonistic action of compounds can be quantified on the bradykinin 1 receptor (B1R) of humans and rats with ectopically expressing cell lines (CHO K1 cells) and with the aid of a Ca^2+-sensitive dye (Fluo-4) in the fluorescent imaging plate reader (FLIPR). The figure in percent activation refers to the Ca^2+ signal after addition of Lys-Des-Arg^9-bradykinin (0.5 nM) and Des-Arg^9-bradykinin (100 nM). Antagonists result in a suppression of the Ca^2+ inflow after the addition of the agonist. Percent inhibition values are given in comparison to the maximum achievable inhibition.
(§2) The agonistic or antagonistic action of substances can be determined on the bradykinin 1 receptor (B1R) of humans and rats by means of the following assay.
(§3) According to this assay the Ca^2+ inflow through the channel is quantified by means of a Ca^2+-sensitive dye (Fluo-4 type, Molecular Probes Europe BV, Leiden, Netherlands), in a Fluorescent Imaging Plate Reader (FLIPR, Molecular Devices, Sunnyvale, USA). Method:
(§4) Chinese hamster ovary cells (CHO K1 cells) are used, which are stably transfected with the human B1R gene (hB1R cells, Euroscreen s.a., Gosselies, Belgium), or with the B1R gene of rats (rB1R cells, Axxam, Milan, Italy). For functional investigations these cells are plated out on black 96-well plates with a clear floor (BD Biosciences, Heidelberg, Germany) in a density of 20,000/25,000 cells/well. The cells are incubated overnight with 10 vol. % FBS (foetal bovine serum, Gibco Invitrogen GmbH, Karlsruhe, Germany) at 37° C. and 5% CO2 in a culture medium (hB1R cells: Nutrient Mixture Ham's F12, Gibco Invitrogen GmbH, Karlsruhe, Germany; rB1R cells: D-MEM/F12, Gibco Invitrogen GmbH, Karlsruhe, Germany). The following day the cells are charged for 60 minutes at 37° C. with 2.13 μM Fluo-4 (Molecular Probes Europe BV, Leiden, Netherlands) in HBSS buffer (Hank's buffered saline solution, Gibco Invitrogen GmbH, Karlsruhe, Germany) together with […] (Sigma-Aldrich, Taufkirchen, Germany) and 10 mM HEPES (Sigma-Aldrich, Taufkirchen, Germany).
(§5) The plates are then washed twice with HBSS buffer and HBSS buffer is added which additionally contains 0.1% BSA (bovine serum albumin; Sigma-Aldrich, Taufkirchen, Germany), 5.6 mM glucose and 0.05% gelatin (Merck KGaA, Darmstadt, Germany). After further incubation for 20 minutes at room temperature the plates are used for the Ca^2+ measurement in the FLIPR. The Ca^2+-dependent fluorescence is measured both before and after the addition of substances (λex=488 nm, λem=540 nm). The quantification is carried out by measuring the highest fluorescence intensity (FC, fluorescence counts) over time.
(§6) The FLIPR protocol consists of two substance additions. First of all test substances (10 μM) are pipetted onto the cells and the Ca^2+ inflow is compared with the control (hB1R: Lys-Des-Arg9-bradykinin 0.5 nM; rB1R: Des-Arg9-bradykinin 100 nM). This gives the result in percent activation referred to the Ca^2+ signal after addition of Lys-Des-Arg9-bradykinin (0.5 nM), bzw. Des-Arg9-bradykinin (100 nM). After 10 minutes' incubation 0.5 nM Lys-Des-Arg9-bradykinin (hB1R) and 100 nM Des-Arg^9-bradykinin (rB1R) are applied and the inflow of Ca^2+ is likewise determined. Antagonists lead to a suppression of the Ca^2+ inflow. The percent inhibition compared to the maximum achievable inhibition is calculated. The compounds show a good activity on both human and rat receptors.
(§7) The agonistic and antagonistic action of the compounds according to the invention on the bradykinin 1 receptor (B1R) of humans and rats were determined as described above. Antagonists lead to a suppression of the Ca^2+ inflow. The % inhibition compared to the maximum achievable inhibition was calculated.

[2] = target: T2, B1R receptor of rats (rB1R) (Rattus norvegicus, UniProt P97583); assay: FLIPR Ca2+ assay on rat bradykinin 1 receptor (CHO K1 rB1R cells); assay type: cell-based; details: test substance 10 μM; CHO K1 cells with B1R gene of rats; agonist Des-Arg9-bradykinin 100 nM; compared to maximum achievable inhibition
T2 construct: host or cells: CHO K1 cells
T2 sequence (P97583 1-337): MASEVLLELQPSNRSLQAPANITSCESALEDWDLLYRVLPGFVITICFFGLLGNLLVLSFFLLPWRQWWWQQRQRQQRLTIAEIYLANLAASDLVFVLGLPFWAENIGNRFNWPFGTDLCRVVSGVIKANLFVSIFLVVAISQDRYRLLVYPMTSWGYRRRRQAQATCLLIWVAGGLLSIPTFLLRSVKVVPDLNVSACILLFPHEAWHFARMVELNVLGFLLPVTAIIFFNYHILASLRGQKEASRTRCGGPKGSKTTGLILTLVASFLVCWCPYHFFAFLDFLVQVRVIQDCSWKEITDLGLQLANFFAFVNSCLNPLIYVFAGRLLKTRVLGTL
Description: as §1, §2, §3, §4, §5, §6, §7

inhibition at 10 µM [1]	inhibition at 10 µM [2]	SMILES
58%	42%	COc1c(C)cc(S(=O)(=O)N(C)CCOCC(=O)N2CCn3cccc3C2c2ccc(C)c(C)c2)c(C)c1C (centres unmarked) [Example 34, N-(2-(2-(1-(3,4-dimethylphenyl)-3,4-dihydropyrrolo[1,2-a]pyrazin-2(1H)-yl)-2-oxoethoxy)ethyl)-4-methoxy-N,2,3,5-tetramethylbenzenesulfonamide]
102%	102%	CCC1c2cccn2CCN1C(=O)COCCN(C)S(=O)(=O)c1c(C)cc(OC)c(C)c1C (centres unmarked) [Example 152, N-(2-(2-(1-ethyl-3,4-dihydropyrrolo[1,2-a]pyrazin-2(1H)-yl)-2-oxoethoxy)ethyl)-4-methoxy-N,2,3,6-tetramethylbenzenesulfonamide]
78%	98%	O=C(CC(NS(=O)(=O)c1ccc2ccccc2c1)c1ccccc1)N1CCn2c(Cc3ccncc3)ccc2C1 (centres unmarked) [Example 169, N-(3-Oxo-1-phenyl-3-(6-(pyridin-4-ylmethyl)-3,4-dihydropyrrolo[1,2-a]pyrazin-2(1H)-yl)propyl)naphthalene-2-sulfonamide]
103%	100%	COc1c(C)cc(S(=O)(=O)N(C)CCOCC(=O)N2CCn3c(CN(C)C)ccc3C2CCc2ccccc2)c(C)c1C (centres unmarked) [Example 110, N-(2-(2-(6-((dimethylamino)methyl)-1-phenethyl-3,4-dihydropyrrolo[1,2-a]pyrazin-2(1H)-yl)-2-oxoethoxy)ethyl)-4-methoxy-N,2,3,5-tetramethylbenzene-sulfonamide]
101%	102%	CCC1c2ccc(C)n2CCN1C(=O)COCCN(CC(C)C)S(=O)(=O)c1c(C)cc(OC)c(C)c1C (centres unmarked) [Example 103, N-(2-(2-(1-ethyl-6-methyl-3,4-dihydropyrrolo[1,2-a]pyrazin-2(1H)-yl)-2-oxoethoxy)ethyl)-N-isobutyl-4-methoxy-2,3,6-trimethylbenzenesulfonamide]
93%	102%	COc1cc(C)c(S(=O)(=O)N(CCOCC(=O)N2CCn3c(C)ccc3C2C(C)C)CC(C)C)c(C)c1C (centres unmarked) [Example 104, N-isobutyl-N-(2-(2-(1-isopropyl-6-methyl-3,4-dihydropyrrolo[1,2-a]pyrazin-2(1H)-yl)-2-oxoethoxy)ethyl)-4-methoxy-2,3,6-trimethylbenzenesulfonamide]
47%	66%	COc1cc(C)c(S(=O)(=O)N(C)CCOCC(=O)N2CCn3cccc3C2c2ccc(C(C)(C)C)cc2)c(C)c1C (centres unmarked) [Example 90, N-(2-(2-(1-(4-tert-butylphenyl)-3,4-dihydropyrrolo[1,2-a]pyrazin-2(1H)-yl)-2-oxoethoxy)ethyl)-4-methoxy-N,2,3,6-tetramethylbenzenesulfonamide]
33%	91%	COc1cc(C)c(S(=O)(=O)N(CCOCC(=O)N2CCn3cccc3C2c2ccc(Cl)nc2)Cc2ccccc2)c(C)c1C (centres unmarked) [Example 42, N-benzyl-N-(2-(2-(1-(6-chloropyridin-3-yl)-3,4-dihydropyrrolo[1,2-a]pyrazin-2(1H)-yl)-2-oxoethoxy)ethyl)-4-methoxy-2,3,6-trimethylbenzenesulfonamide]
23%	87%	CCCC1c2cccn2CCN1C(=O)COCCN(Cc1ccccc1)S(=O)(=O)c1c(C)cc(OC)cc1C (centres unmarked) [Example 154, N-benzyl-4-methoxy-2,6-dimethyl-N-(2-(2-oxo-2-(1-propyl-3,4-dihydropyrrolo[1,2-a]pyrazin-2(1H)-yl)ethoxy)ethyl)benzenesulfonamide]
102%	101%	Cc1cc(C)c(S(=O)(=O)N(C)CCOCC(=O)N2CCn3c(CN4CCCC4)ccc3C2c2ccccc2)c(C)c1 (centres unmarked) [Example 140, N,2,4,6-tetramethyl-N-(2-(2-oxo-2-(1-phenyl-6-(pyrrolidin-1-ylmethyl)-3,4-dihydropyrrolo[1,2-a]pyrazin-2(1H)-yl)ethoxy)ethyl)benzenesulfonamide]
102%	100%	COc1cc(C)c(S(=O)(=O)N(C)CCOCC(=O)N2CCn3cccc3C2c2ccc(C(F)(F)F)cc2F)c(C)c1 (centres unmarked) [Example 63, N-(2-(2-(1-(2-fluoro-4-(trifluoromethyl)phenyl)-3,4-dihydropyrrolo[1,2-a]pyrazin-2(1H)-yl)-2-oxoethoxy)ethyl)-4-methoxy-N,2,6-trimethylbenzene-sulfonamide]
91%	97%	CCCC1c2cccn2CCN1C(=O)COCCN(C)S(=O)(=O)c1cc(C)c(OC)c(C)c1C (centres unmarked) [Example 115, 4-methoxy-N,2,3,5-tetramethyl-N-(2-(2-oxo-2-(1-propyl-3,4-dihydropyrrolo[1,2-a]pyrazin-2(1H)-yl)ethoxy)ethyl)benzenesulfonamide]
99%	92%	COc1cc(C)c(S(=O)(=O)N(C)CCOCC(=O)N2CCn3cccc3C2c2ccc(F)c(F)c2)c(C)c1C (centres unmarked) [Example 85, N-(2-(2-(1-(3,4-difluorophenyl)-3,4-dihydropyrrolo[1,2-a]pyrazin-2(1H)-yl)-2-oxoethoxy)ethyl)-4-methoxy-N,2,3,6-tetramethylbenzenesulfonamide]
20%	75%	O=C(CC(NS(=O)(=O)c1ccc2ccccc2c1)c1ccccc1)N1CCn2c(CCc3ccncc3)ccc2C1 (centres unmarked) [Example 173, N-(3-Oxo-1-phenyl-3-(6-(2-(pyridin-4-yl)ethyl)-3,4-dihydropyrrolo[1,2-a]pyrazin-2(1H)-yl)propyl)naphthalene-2-sulfonamide]
100%	99%	Cc1cc(C)c(S(=O)(=O)N(C)CCOCC(=O)N2CCn3c(CN(C)C)ccc3C2Cc2ccccc2)c(C)c1 (centres unmarked) [Example 143, N-(2-(2-(1-benzyl-6-((dimethylamino)methyl)-3,4-dihydropyrrolo[1,2-a]pyrazin-2(1H)-yl)-2-oxoethoxy)ethyl)-N,2,4,6-tetramethylbenzenesulfonamide]
48%	100%	COc1cc(C)c(S(=O)(=O)N(CCOCC(=O)N2CCn3cccc3C2c2cccs2)Cc2ccccc2)c(C)c1 (centres unmarked) [Example 50, N-benzyl-4-methoxy-2,6-dimethyl-N-(2-(2-oxo-2-(1-(thiophen-2-yl)-3,4-dihydropyrrolo[1,2-a]pyrazin-2(1H)-yl)ethoxy)ethyl)benzenesulfonamide]
